Tested on: mammalian L-929 cells
Format: cell-based
Method: CCIC Huatongwei International Inspection (Suzhou) Co., Ltd. was entrusted to test the potential cytotoxic effect of a recombinant collagen M4 using mammalian L-929 cells cultured in vitro in accordance with method requirements of GB/T16886.5-2017. A test sample and a control sample were placed in a MEM medium including a 10% fetal bovine serum, and extracted in a 37°C incubator for 24 h. After the end of extraction, a cell medium is removed from ta 96-well plate (10^4 cells/well) cultured for 24 h, replaced with the corresponding extraction liquid, and cultured in a cell culture incubator (37°C, 5% CO2, humidity >90% ) for 24 h. After the end of culture, the morphology and lysis of a cell was observed under a microscope. The cytotoxicity value of a test sample was measured using a MTT method. […] After incubation for 24 h, the cell morphology of the extraction liquid with a 100% concentration of the test sample was basically intact, and a cell viability value was 83.6%. The recombinant collagen M4 had no potential cytotoxic effect under the cytotoxicity test conditions of a MTT method.

CCN(CC)C(=S)[S-].CCN(CC)C(=S)[S-].[Zn+2] [ZDEC]
cytotoxic effect: severe cytotoxic reaction

Reference: patent EP4567044A1, “HIGH-STABILITY RECOMBINANT COLLAGEN, AND CONSTRUCTION METHOD THEREFOR AND USE THEREOF” (Jiangsu Trautec Medical Technology Co., Ltd., priority 2022, dated 2024)
